Results taken from patent publication US20220096652A1, “ACETAL-BASED CLEAVABLE LINKERS” (Synaffix B.V., priority 2019, published 2022).
Entries after “also recorded” stand apart in the source; their conditions may differ.

Experiments:
[1] = Negative control: incubation in histidine acetate buffer pH 6 without Papain, UPLC-MS; format: physicochemical; details: pH 6, Papain NO, 37° C., 18 h (10, 18) or 67 h (26); for Ratio DXd / s.m.: based on peak area (UV 254 nm)
Description: To an Eppendorf vial containing histidine acetate buffer (110 μL, 20 mM, pH 6) was added a solution of 10 in DMF (3 μL, 10 mM).
To an Eppendorf vial containing histidine acetate buffer (110 μL, 20 mM, pH 6) was added a solution of 18 in DMF (3 μL, 10 mM).
To an Eppendorf vial containing histidine acetate buffer (110 μL, 20 mM, pH 6) was added a solution of 26 in DMF (3 μL, 10 mM). […] The intermediate 26-Int was not observed.

[2] = Incubation in 1:1 PBS (pH 7.4) / DMF, UPLC-MS; format: physicochemical; details: pH 7.4, Papain NO, 1:1 PBS/DMF, overnight; based on peak area (UV 254 nm)
Description: To a 1:1 mixture of PBS (pH 7.4) and DMF (199 μL) was added a 10 mM solution of 10 in DMF (1 μL). The mixture was incubated overnight and analyzed by UPLC-MS. Intermediate 10-Int and DXd were not observed.
To a 1:1 mixture of PBS (pH 7.4) and DMF (199 μL) was added a 10 mM solution of 18 in DMF (1 μL). The mixture was incubated overnight and analysed by UPLC-MS. Intermediate 18-Int and DXd were not observed.
To a 1:1 mixture of PBS (pH 7.4) and DMF (199 μL) was added a 10 mM solution of 26 in DMF (1 μL). The mixture was incubated overnight and analysed by UPLC-MS. Intermediate 26-Int and DXd were not observed.

Papain = target: T1, Papain (Carica papaya, UniProt P00784); assay: Papain digestion of linker-drug in histidine acetate buffer, UPLC-MS; format: in vitro ADME; details: pH 6, Papain YES, 37° C., 19 h (10, 18) or 67 h (26)
T1 sequence (P00784 134-345): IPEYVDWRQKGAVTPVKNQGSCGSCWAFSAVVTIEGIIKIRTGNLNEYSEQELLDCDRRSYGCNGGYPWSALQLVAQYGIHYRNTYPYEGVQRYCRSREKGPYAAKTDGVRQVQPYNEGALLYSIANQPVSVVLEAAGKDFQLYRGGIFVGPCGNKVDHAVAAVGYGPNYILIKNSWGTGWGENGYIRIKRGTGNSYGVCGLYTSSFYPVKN
Description: To an Eppendorf vial containing histidine acetate buffer (50 μL, 20 mM, pH 6) were added a solution of 10 in DMF (3 μL, 10 mM) and a Papain solution in histidine acetate buffer (0.5 mg/mL, 20 mM buffer, pH 6).
To an Eppendorf vial containing histidine acetate buffer (50 μL, 20 mM, pH 6) were added a solution of 18 in DMF (3 μL, 10 mM) and a Papain solution in histidine acetate buffer (0.5 mg/mL, 20 mM buffer, pH 6).
To an Eppendorf vial containing histidine acetate buffer (50 μL, 20 mM, pH 6) were added a solution of 26 in DMF (3 μL, 10 mM) and a Papain solution in histidine acetate buffer (0.5 mg/mL, 20 mM buffer, pH 6).

Row | Structure (SMILES) | Ratio DXd / s.m. [1] | Ratio DXd / s.m. [2] | Formation of DXd [1] | Formation of DXd (Papain)
1 | CC[C@@]1(O)C(=O)OCc2c1cc1n(c2=O)Cc2c-1nc1cc(F)c(C)c3c1c2[C@@H](NC(=O)COC(C)OCc1ccc(NC(=O)[C@H](C)NC(=O)[C@@H](NC(=O)OCCOCCNC(=O)OC[C@@H]2[C@@H]4CCC#CCC[C@@H]42)C(C)C)cc1)CC3 (stereo partly shown) [Compound 18] | 0 | 0 |  | 
2 | CC[C@@]1(O)C(=O)OCc2c1cc1n(c2=O)Cc2c-1nc1cc(F)c(C)c3c1c2[C@@H](NC(=O)COC1(OCc2ccc(NC(=O)[C@H](C)NC(=O)[C@@H](NC(=O)OCCOCCNC(=O)OC[C@@H]4[C@@H]5CCC#CCC[C@@H]54)C(C)C)cc2)CCCCC1)CC3 [Compound 26] |  | 0 | partial conversion of 26 into DXd; also recorded: + / − | 
3 | CC[C@@]1(O)C(=O)OCc2c1cc1n(c2=O)Cc2c-1nc1cc(F)c(C)c3c1c2[C@@H](NC(=O)COCOCc1ccc(NC(=O)[C@H](C)NC(=O)[C@@H](NC(=O)OCCOCCNC(=O)OC[C@@H]2[C@@H]4CCC#CCC[C@@H]42)C(C)C)cc1)CC3 [Compound 10] | 0 | 0 |  | only a very small amount of material was transformed into DXd; also recorded: + / −
